Assay results as given in ChEMBL document CHEMBL3045274, “Xyloccensins QV, six new 8,9,30-phragmalin ortho ester antifeedants from the Chinese mangrove Xylocarpus granatum” (Tetrahedron, 2005).
Active and inactive are the calls of the source. The rule behind the calls is not given here.

Test system: Mythimna separata
Experiment: Antifeedant activity against third instar larvae of Mythimna separata (Oriental armyworm) in compound treated leaf disk at 500 ppm
Type: functional, organism-based

For `COC(=O)[C@H](OC(C)=O)[C@H]1[C@]2(C)C[C@]3(O)[C@H]([C@H]2OC(C)=O)[C@H]2O[C@@]4(C)O[C@@]5(CC[C@@]6(C)[C@H](c7ccoc7)OC(=O)C[C@@]6(O)[C@@]25O4)[C@]13C`, the Activity was “inactive”.
`COC(=O)[C@@H](O)[C@@H]1[C@@]2(C)C[C@@]3(O)[C@@](OC(C)=O)([C@@H]2OC(C)=O)[C@@H]2O[C@]4(C)O[C@]5(C[C@@H](OC(C)=O)[C@@]6(C)C(=CC(=O)O[C@@H]6c6ccoc6)[C@]25O4)[C@@]13C` was tested, and the Activity was “inactive”.
With `COC(=O)C[C@@H]1[C@@]2(C)C[C@@]3(O)[C@@](O)([C@@H]2OC(C)=O)[C@@H]2O[C@]4(C)O[C@]5(C[C@@H](OC(C)=O)[C@@]6(C)C(=CC(=O)O[C@@H]6c6ccoc6)[C@]25O4)[C@@]13C` the Activity was “inactive”.
`COC(=O)[C@@H](O)[C@@H]1[C@@]2(C)C[C@@]3(O)[C@@](O)([C@@H]2OC(C)=O)[C@@H]2O[C@]4(C)O[C@]5(C[C@@H](OC(C)=O)[C@@]6(C)C(=CC(=O)O[C@@H]6c6ccoc6)[C@]25O4)[C@@]13C` was tested, and the Activity was “inactive”.
`COC(=O)[C@@H](O)[C@@H]1[C@@]2(C)C[C@@]3(O)[C@H]([C@H]4O[C@]5(C)O[C@]6(C[C@@H](OC(C)=O)[C@@]7(C)C(=CC(=O)O[C@@H]7c7ccoc7)[C@]46O5)[C@@]13C)[C@@H]2OC(C)=O` was tested, and the Activity was “inactive”.
For `COC(=O)C[C@@H]1[C@@]2(C)C[C@@]3(O)[C@@](OC(C)=O)([C@@H]2OC(C)=O)[C@@H]2O[C@]4(C)O[C@]5(C[C@@H](OC(C)=O)[C@@]6(C)C(=CC(=O)O[C@@H]6c6ccoc6)[C@]25O4)[C@@]13C`, the Activity was “inactive”.
In the case of `COC(=O)[C@@H](OC(C)=O)[C@@H]1[C@@]2(C)C[C@@]3(O)[C@@](O)([C@@H]2OC(C)=O)[C@@H]2O[C@]4(C)O[C@]5(C[C@@H](OC(C)=O)[C@@]6(C)C(=CC(=O)O[C@@H]6c6ccoc6)[C@]25O4)[C@@]13C`, the Activity is reported as “Active”.
`COC(=O)[C@H](OC(C)=O)[C@H]1[C@]2(C)C[C@]3(O)[C@@](OC(C)=O)([C@H]4O[C@@]5(C)O[C@@]6(CC[C@@]7(C)[C@H](c8ccoc8)OC(=O)C[C@@]7(O)[C@@]46O5)[C@]13C)[C@H]2OC(C)=O` was tested, and the Activity was “Active”.
